Data from ChEMBL document CHEMBL2176956, “Application of structure-based drug design and parallel chemistry to identify selective, brain penetrant, in vivo active phosphodiesterase 9A inhibitors” (J Med Chem, 2012).

Assay: Clearance in human liver microsomes
Format: ADME, Microsome
Conditions: read-out: CLH

O=c1[nH]c(Cc2ccccc2)nc2c1cnn2C1CCCC1
CLint scaled: 200 mL/min/kg
